For series [1], the target named is C-X-C chemokine receptor type 4 (Homo sapiens) (UniProt P61073). Briefly: Competitive binding affinity at CXCR4 in human MDA-MB-231 cells preincubated for 10 mins followed by biotinylated TN14003 addition further incubated for 30 mins by fluorescence microscopy. Type of series: cell-based.
For series [2] the target is unchanged. Nature of the series: Inhibition of CXCR4-mediated chemotaxis in human MDA-MB-231 cells assessed as reduction in CXCL12alpha-induced cell invasion after 22 hrs by hematoxylin/eosin dye-based matrigel assay relative to control. Set-up: concentration or dose not given beside the values. The settings on record: concentration not given here.
The test system of series [3] is MDA-MB-231. Briefly: Inhibition of fibronectin-induced cell adhesion in human MDA-MB-231 cells at 1 to 10 uM incubated for 6 hrs by inverted microscopy. It is filed as functional, cell-based.
For series [4], the system named is MDA-MB-231. Briefly: Inhibition of cell migration in human MDA-MB-231 cells at 10 uM incubated for 24 hrs by inverted microscopy. It is filed as functional, cell-based.
In series [5] the target is C-X-C chemokine receptor type 4 (Homo sapiens) (UniProt P61073). Briefly: Inhibition of CXCR4-mediated chemotaxis in human MDA-MB-231 cells assessed as reduction in CXCL12alpha-induced cell invasion after 22 hrs by hematoxylin/eosin dye-based matrigel assay.
The subject of series [6] is HUVEC. Briefly: Antiangiogenic activity in HUVEC assessed as inhibition of tube formation at 10 uM incubated for 4 hrs by matrigel assay. The settings on record: Homo sapiens. Type of series: functional, cell-based.
The test system of series [7] is MDA-MB-231. Briefly: Inhibition of metastasis in human MDA-MB-231 cells assessed as decrease in p-mTOR expression at 10 uM incubated for 24 hrs by Western blot analysis. It is filed as functional, cell-based. A general note: In western blotting, separated proteins are transferred to a membrane and probed.
A short description of series [8]: Toxicity in BALB/c mouse xenografted with human MDA-MB-231 cells assessed as effect on body weight at 20 mg/kg, po administered twice a day for 2 weeks. It is filed as organism-based. The conditions noted are these: in vivo, 336 h. On the technique in general: A xenograft is tissue or cells of one species grown in another, often human tumour cells in immunodeficient mice.

Series [9] has as its system MDA-MB-231. Briefly: Inhibition of metastasis in human MDA-MB-231 cells assessed as decrease in p-4E-BP1 expression at 10 uM incubated for 24 hrs by Western blot analysis. Type of series: functional, cell-based.
Series [10] concerns MDA-MB-231. Nature of the series: Antimetastatic activity against human MDA-MB-231 cells xenografted in BALB/c mouse assessed as reduction in lung metastasis at 20 mg/kg, ip administered twice a day for 2 weeks and measured on day 14 relative to control. It is filed as functional. The conditions noted are these: MDA-MB-231, ip, 336 h.
The subject of series [11] is MDA-MB-231. Nature of the series: Antimetastatic activity against human MDA-MB-231 cells xenografted in BALB/c mouse assessed as reduction in lung metastatic nodules at 20 mg/kg, ip administered twice a day for 2 weeks and measured on day 14. Type of series: functional, organism-based.
For series [12], the system named is MDA-MB-231. Briefly: Inhibition of metastasis in human MDA-MB-231 cells assessed as decrease in P70S6K expression at 10 uM incubated for 24 hrs by Western blot analysis. It is filed as functional, cell-based.
Series [13] concerns MDA-MB-231. Briefly: Inhibition of cell migration in human MDA-MB-231 cells incubated for 24 hrs by inverted microscopy. It is filed as functional, cell-based.

Molecules are shown by their SMILES. Activity calls are given as the source filed them. The calls are words filed in the database; no cut-off is given here.

For orientation: inhibition means the relative decrease from the control value, in per cent. One may read the inhibition in vivo as the relative decrease from the control value, in per cent.

C-X-C chemokine receptor type 4 (Homo sapiens), sequence (P61073 whole entry): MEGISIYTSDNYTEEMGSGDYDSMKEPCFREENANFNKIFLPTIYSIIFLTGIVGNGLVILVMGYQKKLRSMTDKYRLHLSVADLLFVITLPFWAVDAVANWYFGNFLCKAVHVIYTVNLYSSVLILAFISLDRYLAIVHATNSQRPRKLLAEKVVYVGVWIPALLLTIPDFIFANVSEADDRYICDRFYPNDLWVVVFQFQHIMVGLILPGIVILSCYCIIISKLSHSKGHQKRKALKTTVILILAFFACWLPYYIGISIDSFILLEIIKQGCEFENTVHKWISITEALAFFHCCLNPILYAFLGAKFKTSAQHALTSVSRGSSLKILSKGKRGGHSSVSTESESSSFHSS

With `O=C(NCc1ccc(CNS(=O)(=O)c2ccccc2F)cc1)c1cccnc1`, the EC in series [1] turned out to be 100 nM.

Turning to `Cc1ccccc1C(=O)NCc1ccc(CNS(=O)(=O)c2cccc(Cl)c2)cc1`, in series [1], the EC is 100 nM. In addition, in [2], the inhibition worked out at 99%. Besides, the inhibition result in series [3] and in [4] was “Active” throughout. In the case of `O=C(NCc1ccc(CNS(=O)(=O)c2cccc3ccccc23)cc1)c1cccnc1`, in series [1], the EC came to 1000 nM. The same measure, in the same setting: next, `Cc1ccccc1C(=O)NCc1ccc(CNS(=O)(=O)c2cccc3ccccc23)cc1`: 100 nM. Take `COc1ccccc1C(=O)NCc1ccc(CNS(=O)(=O)c2ccccc2F)cc1`: in series [1], the EC came out at 1 nM. Besides, the inhibition result in series [5] is “inactive”. On to `Cc1cccc(S(=O)(=O)NCc2ccc(CNC(=O)c3cccnc3)cc2)c1`, for which the EC in series [1] came out at 10 nM. With `O=C(NCc1ccc(CNS(=O)(=O)c2ccc(Cl)cc2)cc1)c1cccnc1`, the EC in series [1] came to 1000 nM.

In the case of `Cc1ccccc1C(=O)NCc1ccc(CNS(=O)(=O)c2cccc(F)c2)cc1`, the EC in [1] was 100 nM. In turn, `O=C(NCc1ccc(CNS(=O)(=O)c2ccc([N+](=O)[O-])cc2)cc1)c1cccnc1` displayed an EC in series [1] of 100 nM. Besides, in series [5], the inhibition result was “inactive”. As to `O=C(NCc1ccc(CNS(=O)(=O)c2cccc(F)c2)cc1)c1cccnc1`, in series [1], the EC worked out at 1000 nM. The compound `Cc1ccccc1C(=O)NCc1ccc(CNS(=O)(=O)c2ccccc2Cl)cc1` came in with an EC in [1] of 1000 nM.

Regarding `COc1ccccc1C(=O)NCc1ccc(CNS(=O)(=O)c2ccccc2Cl)cc1`, in [1], the EC is 100 nM. Besides, the inhibition in series [2] came out at 99%. In addition, the inhibition result in [3] and in series [4] was “Active” each time. In the case of `Cc1cccc(S(=O)(=O)NCc2ccc(CNC(=O)c3ccccc3C)cc2)c1`, in series [1], the EC turned out to be 1000 nM. `Cc1ccccc1C(=O)NCc1ccc(CNS(=O)(=O)c2ccc(Cl)cc2)cc1`: in series [1], the EC worked out at 1 nM. The same measure, in the same setting: the same measure for `COc1ccccc1C(=O)NCc1ccc(CNS(=O)(=O)c2cccc(Cl)c2)cc1`: 1000 nM. Turning to `Cc1ccccc1C(=O)NCc1ccc(CNS(=O)(=O)c2ccccc2C)cc1`, in [1], the EC amounted to 10 nM. The inhibition in series [2] was found to be 99%. For the same compound, the inhibition entry in series [6], in series [3] and in series [4] was “Active” throughout. `COc1ccccc1C(=O)NCc1ccc(CNS(=O)(=O)c2cccc3ccccc23)cc1` yielded an EC in series [1] of more than 1000 nM.

Take `COc1ccccc1C(=O)NCc1ccc(CNS(=O)(=O)c2ccc(F)cc2)cc1`: the EC in series [1] turned out to be 100 nM. The same measure, in the same setting: next, `Cc1ccccc1S(=O)(=O)NCc1ccc(CNC(=O)c2cccnc2)cc1`: 1000 nM. In turn, `O=C(NCc1ccc(CNS(=O)(=O)c2ccc(F)cc2)cc1)c1cccnc1` came in with an EC in series [1] of 100 nM. In addition, the inhibition in series [2] was 92%; in series [13] it was “Dose-dependent effect”. Further, the inhibition entry in series [7], in series [6], in [9], in series [3], in series [4] and in series [12] was “Active” in each case. For the same compound, the Activity result in series [8] was “Non-Toxic”. Besides, the inhibition in vivo at 20 mg/kg in series [10] is 43%. Moreover, the result in [11] was Active. For `COc1ccccc1C(=O)NCc1ccc(CNS(=O)(=O)c2ccc(Cl)cc2)cc1`, in [1], the EC was determined as 1000 nM. Consider `COc1ccccc1C(=O)NCc1ccc(CNS(=O)(=O)c2ccccc2C)cc1`, for which the EC in [1] stood at 1000 nM. In series [1], `Cc1ccccc1C(=O)NCc1ccc(CNS(=O)(=O)c2ccc(F)cc2)cc1` registered an EC of 10 nM. On the same count and under the same terms, next, `O=C(NCc1ccc(CNS(=O)(=O)c2cccc(Cl)c2)cc1)c1cccnc1`: 100 nM. For `COc1ccccc1C(=O)NCc1ccc(CNS(=O)(=O)c2ccc([N+](=O)[O-])cc2)cc1`, the EC in series [1] was determined as 100 nM.

In series [1], `COc1ccccc1C(=O)NCc1ccc(CNS(=O)(=O)c2cccc(C)c2)cc1` displayed an EC of 1000 nM.

For `Cc1ccccc1C(=O)NCc1ccc(CNS(=O)(=O)c2ccccc2F)cc1`, the EC in series [1] stood at 1000 nM.

Compound `COc1ccccc1C(=O)NCc1ccc(CNS(=O)(=O)c2cccc(F)c2)cc1` registered an EC in series [1] of 1000 nM. Regarding `Cc1ccccc1C(=O)NCc1ccc(CNS(=O)(=O)c2ccc([N+](=O)[O-])cc2)cc1`, the EC in series [1] is 100 nM. In series [1], `O=C(NCc1ccc(CNS(=O)(=O)c2ccccc2Cl)cc1)c1cccnc1` displayed an EC of 100 nM. In addition, the inhibition in [2] came to 96%. Moreover, the inhibition result in series [6], in series [3] and in [4] was “Active” in each case.

Source of the values: ChEMBL document CHEMBL4312016, “Amide-sulfamide modulators as effective anti-tumor metastatic agents targeting CXCR4/CXCL12 axis” (Eur J Med Chem, 2020).
